Experiment [1] has as its system Candida albicans. As to the kind of experiment: Antifungal activity against Candida albicans. Type of experiment: functional.
Experiment [2] deals with Candida parapsilosis. The experiment is described as follows: Antifungal activity against Candida parapsilosis. The class given is functional. The conditions noted are these: Lodderomyces parapsilosis.
Experiment [3] relates to Candida tropicalis. The experiment is described as follows: Antifungal activity against Candida tropicalis. The class given is functional.
Experiment [4] deals with Cryptococcus neoformans. As to the kind of experiment: Antifungal activity against Cryptococcus neoformans. The class given is functional.
Experiment [5] has as its system Aspergillus fumigatus. The experiment is described as follows: Antifungal activity against Aspergillus fumigatus. The class given is functional.
Experiment [6] has as its system Fonsecaea pedrosoi. The experiment is described as follows: Antifungal activity against Fonsecaea pedrosoi. Type of experiment: functional.
The subject of experiment [7] is Trichophyton rubrum. As to the kind of experiment: Antifungal activity against Trichophyton rubrum. Type of experiment: functional.
In experiment [8] the test system is Sporothrix schenckii. As to the kind of experiment: Antifungal activity against Sporothrix schenckii. Type of experiment: functional.
The subject of experiment [9] is Nannizzia gypsea. As to the kind of experiment: Antifungal activity against Microsporum gypseum. The class given is functional.
Experiment [10] deals with Trichophyton violaceum. The experiment is described as follows: Antifungal activity against Trichophyton violaceum. The class given is functional.
The test system of experiment [11] is Microsporum. As to the kind of experiment: Antifungal activity against Microsporum lanosum. The class given is functional.
The subject of experiment [12] is Trichophyton benhamiae. The experiment is described as follows: Antifungal activity against Trichophyton mentagrophytes. The class given is functional, Arthroderma benhamiae.
The subject of experiment [13] is Epidermophyton floccosum. The experiment is described as follows: Antifungal activity against Epidermophyton floccosum. Type of experiment: functional.

≈ marks a conversion by molar mass, not a printed value.

As to `CN(Cc1cc(F)ccc1Br)CC(O)(Cn1cncn1)c1ccc(F)cc1F` (stereo not given), the MIC80 (as a rule, an inhibitory concentration at the 80% level, which refers to growth in some studies and to a panel of isolates in others) is 0.032 µg/mL (≈ 0.0703 µM) in experiment [1]; ≤ 0.125 µg/mL in [2]; ≤ 0.125 µg/mL in experiment [3]; ≤ 0.125 µg/mL in experiment [4]; 4 µg/mL (≈ 8.79 µM) in [5]; 2 µg/mL (≈ 4.39 µM) in experiment [6]. Moreover, the MIC80 in [7] was found to be 0.5 µg/mL (≈ 1.1 µM); in experiment [8], 64 µg/mL (≈ 141 µM); in [9], 32 µg/mL (≈ 70.3 µM); in [10] it was 4 µg/mL (≈ 8.79 µM); in [11], 8 µg/mL (≈ 17.6 µM); in [12], 0.5 µg/mL (≈ 1.1 µM). The MIC80 in experiment [13] is < 0.0625 µg/mL.

For the compound `CN(Cc1ccc(NC(=O)c2ccc(I)cc2)cc1)CC(O)(Cn1cncn1)c1ccc(F)cc1F` (stereo not given), the MIC80 in [1] was 0.0625 µg/mL (≈ 0.104 µM); in experiment [2], 0.5 µg/mL (≈ 0.829 µM); in experiment [3], 0.25 µg/mL (≈ 0.414 µM); in experiment [4] it was ≤ 0.031 µg/mL; in experiment [5], > 64 µg/mL; in experiment [6] it was ≤ 0.125 µg/mL. Also, the MIC80 in [7] and in experiment [11] was ≤ 0.125 µg/mL each time.

`Cc1cccc(C(=O)Nc2ccc(CN(C)CC(O)(Cn3cncn3)c3ccc(F)cc3F)cc2)c1` (stereo not given): the MIC80 in [1] was found to be 0.031 µg/mL (≈ 0.0631 µM); in experiment [2], 0.0625 µg/mL (≈ 0.127 µM); in experiment [3] it was 1 µg/mL (≈ 2.03 µM); in [4], 1 µg/mL (≈ 2.03 µM); in experiment [5], 16 µg/mL (≈ 32.6 µM); in experiment [6] it was 0.5 µg/mL (≈ 1.02 µM). Besides, the figures for the MIC80 in experiment [7] and in experiment [11] were ≤ 0.125 µg/mL and 0.25 µg/mL (≈ 0.509 µM), respectively.

For the compound `CN(Cc1ccc(NC(=O)c2ccc(Cl)cc2Cl)cc1)CC(O)(Cn1cncn1)c1ccc(F)cc1F` (stereo not given), the MIC80 is 0.016 µg/mL (≈ 0.0293 µM) in experiment [1]; 0.125 µg/mL (≈ 0.229 µM) in [2]; 0.5 µg/mL (≈ 0.915 µM) in experiment [3]; 0.0625 µg/mL (≈ 0.114 µM) in experiment [4]; 16 µg/mL (≈ 29.3 µM) in experiment [5]; ≤ 0.125 µg/mL in experiment [6]. For the same compound, the MIC80 in [7] and in experiment [11] was 0.5 µg/mL (≈ 0.915 µM) in each case.

For `CN(Cc1ccc(I)cc1)CC(O)(Cn1cncn1)c1ccc(F)cc1F` (stereo not given), the MIC80 in experiment [1] is 0.032 µg/mL (≈ 0.0661 µM); in experiment [2] it was 0.25 µg/mL (≈ 0.516 µM); in experiment [3] it was ≤ 0.125 µg/mL; in [4], ≤ 0.125 µg/mL; in experiment [5] it was ≤ 0.125 µg/mL; in experiment [6], ≤ 0.125 µg/mL. Also, the MIC80 is ≤ 0.125 µg/mL in experiment [7]; 16 µg/mL (≈ 33 µM) in experiment [8]; < 0.0625 µg/mL in experiment [9]; < 0.0625 µg/mL in experiment [10]; < 0.0625 µg/mL in [11]; < 0.0625 µg/mL in experiment [12]. In addition, the MIC80 in experiment [13] is < 0.0625 µg/mL.

On to `CN(Cc1ccc(NC(=O)c2ccc(Br)cc2)cc1)CC(O)(Cn1cncn1)c1ccc(F)cc1F` (stereo not given), for which the MIC80 in experiment [1] is 0.008 µg/mL (≈ 0.0144 µM); in [2], 0.016 µg/mL (≈ 0.0288 µM); in experiment [3], 0.016 µg/mL (≈ 0.0288 µM); in experiment [4], 0.125 µg/mL (≈ 0.225 µM); in experiment [5] it was 16 µg/mL (≈ 28.8 µM); in experiment [6], ≤ 0.125 µg/mL. The MIC80 is ≤ 0.125 µg/mL in experiment [7] and 0.25 µg/mL (≈ 0.449 µM) in [11].

With `CN(Cc1cccc(I)c1)CC(O)(Cn1cncn1)c1ccc(F)cc1F` (stereo not given), the MIC80 in experiment [1] was 1 µg/mL (≈ 2.06 µM); in [2], 1 µg/mL (≈ 2.06 µM); in experiment [3], ≤ 0.125 µg/mL; in experiment [4] it was ≤ 0.125 µg/mL; in experiment [5] it was 8 µg/mL (≈ 16.5 µM); in experiment [6], ≤ 0.125 µg/mL. The MIC80 in experiment [7] was ≤ 0.125 µg/mL; in experiment [8], 64 µg/mL (≈ 132 µM); in [9], 0.125 µg/mL (≈ 0.258 µM); in [10], < 0.0625 µg/mL; in [11], < 0.0625 µg/mL; in experiment [12], < 0.0625 µg/mL. The MIC80 in experiment [13] was < 0.0625 µg/mL.

Take `OC(Cn1cncn1)(Cn1cncn1)c1ccc(F)cc1F` [FLUCONAZOLE]: the MIC80 in [1] was found to be 0.25 µg/mL (≈ 0.816 µM); in [2], 0.5 µg/mL (≈ 1.63 µM); in experiment [3], 0.5 µg/mL (≈ 1.63 µM); in experiment [4], 16 µg/mL (≈ 52.2 µM); in experiment [5] it was 32 µg/mL (≈ 104 µM); in experiment [6], 64 µg/mL (≈ 209 µM). The MIC80 was 8 µg/mL (≈ 26.1 µM) in experiment [7]; > 64 µg/mL in experiment [8]; 8 µg/mL (≈ 26.1 µM) in [9]; 32 µg/mL (≈ 104 µM) in [10]; > 32 µg/mL in experiment [11]; > 32 µg/mL in [12]. For the same compound, the MIC80 in experiment [13] is > 32 µg/mL.

`CC(=O)N1CCN(c2ccc(OCC3COC(Cn4ccnc4)(c4ccc(Cl)cc4Cl)O3)cc2)CC1` (stereo not given) [KETOCONAZOLE]: the MIC80 in [1] is 0.0625 µg/mL (≈ 0.118 µM); in experiment [2] it was ≤ 0.125 µg/mL; in experiment [3], ≤ 0.125 µg/mL; in experiment [4], ≤ 0.125 µg/mL; in experiment [5], 1 µg/mL (≈ 1.88 µM); in [6] it was ≤ 0.125 µg/mL. The MIC80 was ≤ 0.125 µg/mL in [7]; 0.5 µg/mL (≈ 0.941 µM) in experiment [8]; < 0.0625 µg/mL in experiment [9]; 0.25 µg/mL (≈ 0.47 µM) in [10]; < 0.0625 µg/mL in experiment [11]; < 0.0625 µg/mL in experiment [12]. For the same compound, in [13], the MIC80 is < 0.0625 µg/mL.

`CN(C/C=C/C#CC(C)(C)C)Cc1cccc2ccccc12` [TERBINAFINE]: the MIC80 in [1] was 16 µg/mL (≈ 54.9 µM); in [2] it was 16 µg/mL (≈ 54.9 µM); in [3], 16 µg/mL (≈ 54.9 µM); in experiment [4], 4 µg/mL (≈ 13.7 µM); in experiment [5] it was 0.25 µg/mL (≈ 0.858 µM); in experiment [6], ≤ 0.125 µg/mL. The MIC80 in experiment [7] was ≤ 0.125 µg/mL; in experiment [8] it was 2 µg/mL (≈ 6.86 µM); in experiment [9], 0.5 µg/mL (≈ 1.72 µM); in experiment [10] it was 4 µg/mL (≈ 13.7 µM); in experiment [11], 32 µg/mL (≈ 110 µM); in experiment [12], > 32 µg/mL. Further, in experiment [13], the MIC80 was > 32 µg/mL.

Values taken from ChEMBL document CHEMBL1146065, “Structure-based optimization of azole antifungal agents by CoMFA, CoMSIA, and molecular docking” (2006).
